Broadly, the Km is the concentration of substrate that gives half-maximal velocity.

These results are taken from patent publication US6166290A, “Glutathione-S-conjugate transport in plants” (The Trustees of the University of Pennsylvania, priority 1997, dated 2000).

Where two headings read alike, the source gives them in different places. Bounds are passed on as bounds.

Data set [1] relates to vacuolar GS-X pump (vacuolar membrane vesicles, V. radiata hypocotyls). As to the kind of experiment: GS-conjugate uptake by vacuolar membrane vesicles from etiolated hypocotyls of V. radiata. The format is biochemical, Vigna radiata. The protocol:
Values shown are means ±SE (n=3).
Vacuolar membrane vesicles were purified from etiolated hypocotyls of V. radiata cv.
Unless otherwise indicated, [^3 H]medicarpin or [3H]medicarpin-GS uptake was measured at 25° C. in 200 μl reaction volumes containing 3 mM ATP, 3 mM MgSO4, 10 mM creatine phosphate, 16 U/ml creatine kinase, 50 mM KCl, 0.1% (w/v) BSA, 400 mM sorbitol and 25 mM Tris-Mes buffer, pH 8.0. Uptake was initiated by the addition of 12 μl membrane vesicles (30-40 μg protein) and brief mixing of the samples on a vortex mixer. Uptake was terminated by the addition of 1 ml ice-cold wash medium (400 mM sorbitol, 3 mM Tris-Mes, pH 8.0) and vacuum filtration of the suspension through prewetted HA cellulose nitrate filters (pore diameter 0.45 μm). The filters were rinsed twice with a 1 ml ice-cold wash medium, air-dried and radioactivity was determined by liquid scintillation counting.

Data set [2] concerns vacuolar membrane vesicles purified from DTY167 cells (ycf1Δ mutant). The format is biochemical, Saccharomyces cerevisiae. Particulars: 5 μM gramicidin D. The procedure: For the routine preparation of vacuolar membrane vesicles, 15 ml of stationary phase cultures of DTY165 or DTY167 were diluted into 1-liter volumes of fresh YPD medium, grown for 24 hours at 30° C. to an OD600 nm of approximately 0.8 and collected by centrifugation. After washing with distilled water, the cells were converted to spheroplasts with Zymolyase 20T (ICN) (Kim et al., 1994, supra) and intact vacuoles were isolated by flotation centrifugation of spheroplast lysates on Ficoll 400 step gradients as described by Roberts et al. (1991, Methods. Enzymol. 194:644-661). Both the spheroplast lysis buffer and Ficoll gradients contained 2 mg/ml bovine serum albumin, 1 μg/ml aprotinin, 1 μg/ml leupeptin, 1 μg/ml pepstatin, and 1 mM PMSF to minimize proteolysis. The resulting vacuole fraction was vesiculated in 5 mM MgCl2, 25 mM KCl, 10 mM Tris-Mes (pH 6.9) containing 2 mg/ml bovine serum albumin, 1 μg/ml aprotinin, 1 μg/ml leupeptin, 1 μg/ml pepstatin, and 1 mM PMSF, pelleted by centrifugation at 37,000× g for 25 min, and resuspended in suspension medium (1.1 M glycerol, 2 mM dithiothreitol, 1 mM Tris-EGTA, 2 mg/ml bovine serum albumin, 1 μg/ml aprotinin, 1 μg/ml leupeptin, 1 μg/ml pepstatin, 1 mM PMSF, 5 mM Tris-Mes, pH 7.6) (Kim et al., 1995, J. Biol. Chem. 270:2630-2635).
Unless otherwise indicated, [^3 H]DNP-GS uptake was measured at 25° C. in 200 μl reaction volumes containing 3 mM ATP, 3 mM MgSO4, 5 μM gramicidin-D, 10 mM creatine phosphate, 16 units/ml creatine kinase, 50 mM KC 1, 1 mg/ml bovine serum albumin, 400 mM sorbitol, 25 mM Tris-Mes (pH 8.0), and 66.2 μM [^3 H]DNP-GS (8.7 mCi/mmol) (Li et al., 1995, supra). […] Uptake was initiated by the addition of vacuolar membrane vesicles (10-15 μg of membrane protein), brief mixing of the samples on a vortex mixer and uptake was then allowed to proceed for 1-60 minutes. Uptake was terminated by the addition of 1 ml of ice-cold wash medium (400 mM sorbitol, 3 mM Tris-Mes, pH 8.0) and vacuum filtration of the suspension through prewetted Millipore HA cellulose nitrate membrane filters (pore diameter, 0.45 μm). The filters were rinsed twice with 1 ml of ice-cold wash medium and air-dried, and radioactivity was determined by liquid scintillation counting in BCS mixture (Amersham Corp.). Nonenergized [^3 H]DNP-GS uptake and extravesicular solution trapped on the filters were enumerated by the same procedure except that ATP and Mg^2 +were omitted from the uptake medium.

The target of data set [3] is T1, YCF1 (vacuolar membrane vesicles purified from DTY165 cells) (Saccharomyces cerevisiae, UniProt P39109).
T1 construct: endogenous in cells; host or cells: S. cerevisiae DTY165 (wild type YCF1), vacuolar membrane vesicles
The experiment in a line: [3H]DNP-GS uptake by vacuolar membrane vesicles purified from DTY165 cells. Format: biochemical. To be noted: 5 μM gramicidin D, read-out: I50 for MgATP-dependent, uncoupler-insensitive DNP-GS uptake. The procedure, abridged:
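ATP-dependent [3H]DNP-GS (66.2 μM) transport measured by filtration and scintillation counting of Ficoll-purified yeast vacuolar vesicles (DTY165 wild type; DTY167 ycf1Δ), 1–60 min at 25 °C in sorbitol/Tris-Mes pH 8.0 with 3 mM ATP, 3 mM MgSO4 and gramicidin-D. Nonenergized uptake without ATP/Mg2+.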

For data set [4], the system named is endogenous GS-X pump of plant vacuolar membranes. To be noted: vanadate; read-out: I50 for inhibition of the endogenous vacuolar GS-X pump of plant cells; cited from earlier work.
Data set [5] concerns membrane vesicles purified from pYES3-transformed DTY168 cells. The experiment in a line: DNP-GS uptake by membrane vesicles from pYES3 (empty vector)-transformed DTY168 cells. The format is biochemical, Saccharomyces cerevisiae. The protocol:
S. cerevisiae strain DTY168 (MATα his6, leu2-3, -112, ura3-52 ycf1::hisG) was transformed with pYES3-AtMRP1 or empty vector lacking the AtMRP1 insert (pYES3) by the LiOAc/PEG method (Giest et al., 1991, Yeast 7:253-263) and selected for uracil prototrophy by plating on AHC medium containing tryptophan (Kim et al., 1994, supra).
For the preparation of membrane vesicles, 15 ml volumes of stationary phase cultures of the transformants were diluted into 1 L of fresh AHC medium and grown to an OD600 nm of about 1.2. Membrane vesicles were purified as described herein and in Kim et al. (1995, supra).
DNP-GS uptake was measured as described herein in 200 μl reaction volumes containing 3 mM ATP, 3 mM MgSO4, 5 μM gramicidin-D, 10 mM creatine phosphate, 16 units/ml creatine kinase, 50 mM KCl, 1 mg/ml BSA, 400 mM sorbitol, 25 mM Tris-Mes (pH 8.0) and the indicated concentrations of [^3 H]DNP-GS (17.4 mCi/mmol).

Data set [6] concerns vacuolar GS-X pump (vacuolar membrane vesicles, Z. mays roots). The experiment in a line: GS-conjugate uptake by vacuolar membrane vesicles from roots of Z. mays. Format: biochemical, Zea mays.
Substrate in data set [7]: N[C@@H](CCC(=O)N[C@@H](CSSC[C@H](NC(=O)CC[C@H](N)C(=O)O)C(=O)NCC(=O)O)C(=O)NCC(=O)O)C(=O)O
As to the kind of experiment: cells, lysate or membranes. To be noted: other: MgATP-dependent, uncoupler-insensitive; pH 8.0.

Where [8] appears, read: read-out: I50 for uptake of IAA-GS.

T1 sequence (P39109 whole entry): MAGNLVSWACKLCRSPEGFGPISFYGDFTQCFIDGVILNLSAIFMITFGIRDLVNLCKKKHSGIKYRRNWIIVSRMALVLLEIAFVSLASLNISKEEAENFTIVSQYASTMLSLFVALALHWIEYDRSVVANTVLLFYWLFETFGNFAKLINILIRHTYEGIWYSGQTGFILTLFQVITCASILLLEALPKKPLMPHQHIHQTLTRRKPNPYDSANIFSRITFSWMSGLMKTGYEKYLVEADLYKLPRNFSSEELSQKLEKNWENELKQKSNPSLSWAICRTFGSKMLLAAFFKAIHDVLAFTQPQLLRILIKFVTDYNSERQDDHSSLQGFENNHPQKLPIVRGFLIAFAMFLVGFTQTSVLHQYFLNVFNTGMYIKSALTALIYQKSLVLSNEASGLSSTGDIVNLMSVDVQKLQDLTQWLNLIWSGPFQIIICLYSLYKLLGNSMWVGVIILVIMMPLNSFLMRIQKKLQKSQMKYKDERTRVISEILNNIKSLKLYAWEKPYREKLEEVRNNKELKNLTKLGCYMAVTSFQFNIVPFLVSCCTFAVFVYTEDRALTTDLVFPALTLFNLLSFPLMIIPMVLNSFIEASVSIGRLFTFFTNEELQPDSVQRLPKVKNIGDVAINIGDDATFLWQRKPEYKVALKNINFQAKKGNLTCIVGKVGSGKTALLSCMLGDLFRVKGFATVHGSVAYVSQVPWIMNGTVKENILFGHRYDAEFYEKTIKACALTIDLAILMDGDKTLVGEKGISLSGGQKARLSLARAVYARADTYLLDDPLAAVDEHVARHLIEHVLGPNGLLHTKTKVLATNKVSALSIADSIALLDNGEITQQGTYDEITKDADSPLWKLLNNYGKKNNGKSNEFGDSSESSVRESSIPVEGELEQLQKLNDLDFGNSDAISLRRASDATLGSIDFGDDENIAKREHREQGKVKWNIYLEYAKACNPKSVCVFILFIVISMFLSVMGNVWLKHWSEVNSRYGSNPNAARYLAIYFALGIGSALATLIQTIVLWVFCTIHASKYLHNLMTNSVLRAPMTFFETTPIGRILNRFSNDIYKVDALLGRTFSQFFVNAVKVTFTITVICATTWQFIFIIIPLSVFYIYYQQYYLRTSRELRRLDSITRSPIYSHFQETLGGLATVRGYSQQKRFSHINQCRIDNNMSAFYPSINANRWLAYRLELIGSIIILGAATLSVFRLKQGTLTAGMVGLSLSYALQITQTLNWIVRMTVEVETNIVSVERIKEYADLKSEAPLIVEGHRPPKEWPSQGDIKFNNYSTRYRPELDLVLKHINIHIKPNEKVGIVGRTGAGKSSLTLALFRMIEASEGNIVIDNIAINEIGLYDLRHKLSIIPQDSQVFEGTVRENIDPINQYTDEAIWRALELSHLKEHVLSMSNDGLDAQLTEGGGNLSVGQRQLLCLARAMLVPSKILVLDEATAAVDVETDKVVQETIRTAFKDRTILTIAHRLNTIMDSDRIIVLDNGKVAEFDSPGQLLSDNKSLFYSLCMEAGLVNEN

Take `[O]=[V]([O-])([O-])[O-]` [Vanadate]: the IC50 in data set [1] (V. radiata, read-out: I50 for uptake of C3G-GS) was 7.9 µM; in data set [1] (setting [8]) it was 6.5 µM; in data set [3] (listed as vanadate), 179 µM; in data set [3] it was 179 µM; in data set [4], 7.5 ± 3.9 µM; in data set [6] (read-out: I50 for uptake of ABA-GS), > 150 µM. Further, the IC50 in data set [6] (read-out: I50 for uptake of C3G-GS) is 8.2 µM; in data set [6] (setting [8]) it was 5.5 µM. Besides, the “inhibition of MgATP-dependent [3H]medicarpin-GS uptake” value in data set [1] (vanadate 10 μM, DNP-GS 100 μM, gramicidin D) is “more than 85%”. For the same molecule, the “I50 for MgATP-dependent, uncoupler-insensitive DNP-GS uptake” value in data set [2] was “Insensitive”. Moreover, in data set [5], the “sensitivity of DNP-GS uptake to vanadate” value is listed as “insensitive”.

B1: AtMRP2 (Arabidopsis thaliana) (protein)
chain: MGFEFIEWYCKPVPNGVWTKQVANAFGAYTPCATDSFVLGISQLVLLVLCLYRIWLALKDHKVERFCLRSRLYNYFLALLAAYATAEPLFRLIMGISVLDFDGPGLPPFEAFGLGVKAFAWGAVMVMILMETKIYIRELRWYVRFAVIYALVGDMVLLNLVLSVKEYYSSYVLYLYTSEVGAQVLFGILLFMHLPNLDTYPGYMPVRSETVDDYEYEEISDGQQICPEKHANIFDKIFFSWMNPLMTLGSKRPLTEKDVWYLDTWDQTETLFTSFQHSWDKELQKPQPWLLRALNNSLGGRFWWGGFWKIGNDCSQFVGPLLLNQLLKSMQEDAPAWMGYIYAFSIFVGVVFGVLCEAQYFQNVMRVGYRLRSALIAAVFRKSLRLTNEGRRKFQTGKITNLMTTDAESLQQICQSLHTMWSAPFRIIIALILLYQQLGVASLIGALLLVLMFPLQTVIISKMQKLTKEGLQRTDKRIGLMNEVLAAMDTVKCYAWENSFQSKVQTVRDDELSWFRKSQLLGALNMFILNSIPVLVTIVSFGVFTLLGGDLTPARAFTSLSLFAVLRFPLFMLPNIITQVVNANVSLKRLEEVLATEERILLPNPPIEPGEPAISIRNGYFSWDSKGDRPTLSNINLDVPLGSLVAVVGSTGEGKTSLISAILGELPATSDAIVTLRGSVAYVPQVSWIFNATVRDNILFGSPFDREKYERAIDVTSLKHDLELLPGGDLTEIGERGVNISGGQKQRVSMARAVYSNSDVYIFDDPLSALDAHVGQQVFEKCIKRELGQKTRVLVTNQLHFLSQVDRIVLVHEGTVKEEGTYEELSSNGPLFQRLMENAGKVEEYSEENGEAEADQTAEQPVANGNTNGLQMDGSDDKKSKEGNKKGGKSVLIKQEERETGVVSWRVLKRYQDALGGAWVVMMLLLCYVLTEVFRVTSSTWLSEWTDAGTPKSHGPLFYNLIYALLSFGQVLVTLTNSYWLIMSSLYAAKKLHDNMLHSILRAPMSFFHTNPLGRIINRFAKDLGDIDRTVAVFVNMFMGQVSQLLSTVVLIGIVSTLSLWAIMPLLVLFYGAYLYYQNTAREVKRMDSISRSPVYAQFGEALNGLSTIRAYKAYDRMADINGRSMDNNIRFTLVNMGANRWLGIRLETLGGLMIWLTASFAVMQNGRAENQQAFASTMGLLLSYALNITSLLTGVLRLASLAENSLNAVERVGNYIEIPPEAPPVIENNRPPPGWPSSGSIKFEDVVLRYRPQLPPVLHGVSFFIHPTDKVGIVGRTGAGKSSLLNALFRIVEVEKGRILIDDCDVGKFGLMDLRKVLGIIPQSPVLFSGTVRFNLDPFGEHNDADLWESLERAHLKDTIRRNPLGLDAEVSEAGENFSVGQRQLLSLSRALLRRSKILVLDEATAAVDVRTDALIQKTIREEFKSCTMLIIAHRLNTIIDCDKILVLDSGRVQEFSSPENLLSNEGSSFSKMVQSTGAANAEYLRSLVLDNKRAKDDSHHLQGQRKWLASSRWAAAAQFALAASLTSSHNDLQSLEIEDDSSILKRTNDAVVTLRSVLEGKHDKEIAESLEEHNISREGWLSSLYRMVEGLAVMSRLARNRMQQPDYNFEGNTFDWDNVEM
As for B1, the Michaelis constant (Km) in data set [7] came to 73.0 ± 15.1 µM.
